Assay [1] relates to proteasome. As to conditions: literature overview; cited from earlier work.
The subject of assay [2] is 20S and/or 26S proteasome. Briefly: FACS-based proteasome activity assay with Me4BodipyFL-Ahx3Leu3VS activity probe in MelJuSo wild type cells. It counts as cell-based, human. As to conditions: 5 μM, 16 hours, triplicate. As to the method:
MelJuSo cells are washed, trypsinized and resuspended in medium containing FBS and antibiotics. After counting the concentration is adjusted to 200,000 cells per mL. Using the Wellmate microplate dispenser fitted with small bore nozzle tubing, 50 μL of cell suspension is transferred to each well of a black 384 wells plate (10,000 cells/well).
A brief spin down will prevent any liquid from being lost when the plate cover is removed. Using a Hamilton liquid handling workstation the compounds are diluted to appropriate concentrations. To “wash” the cells prior to exposure 30 μL of medium is removed from each well and is replaced with fresh medium. Then the compounds are added to the medium of the cells (final concentration 5 μM).
Using the Wellmate microplate dispenser fitted with small bore nozzle tubing, […] of probe suspension is transferred to each well resulting in a final probe concentration of 200 nM. Plates are left to incubate for two hours. Then the medium is removed and the cells are washed one time with PBS. The PBS is removed and 10 μL of trypsin is added to each well. The plates are left on a shaker for 2 minutes, placed in an incubator for 5 minutes and put on a shaker again for 2 minutes. 40 μL of PBS containing 2% FBS is added per well and the plates are put on the shaker for 2 minutes. Finally, 20 μL of PBS containing 4% formaldehyde is added and the plates are left to shake for at least 15 minutes. Plates are left on a shaker at 4° C. until they can be measured.
The FITS unit is installed on the FACS and everything is turned on. To remove air from the system and ascertain that everything works fine the system is primed twice. One by one the plates are brought down and measured. In between plates a “daily clean” cycle is performed to prevent the system from becoming clogged. After the last plate the system should be cleaned again.
Analysis is always performed per plate. Throughout the analysis the following parameters are considered: • Forward Scatter (FSC): size of the cell • Side Scatter (SSC): granularity of the cell • Number of events (#) • Probe signal (FL-1): proteasome activity • FL-2 and FL-3: signal in other channels
All DMSO samples are checked and aberrant wells (low # events, high SSC, no signal) are excluded. The average of the FL-1 from all remaining DMSO samples is used to calculate the “ratio vs. DMSO” and the FL-1 log 2 ratio of the experimental samples. This will result in DMSO samples having a FL-1 log 2 value around zero. Compounds are considered “activators” or “hits” if the FL-1 log 2 ratio is >1, and inhibitors if the FL-1 log 2 ratio is […].
Cells were washed once with phosphate buffered saline (PBS, 1 GIBCO tablet in 500 mL MilliQ). Fresh medium containing the compound at the indicated concentration was added. After the incubation time 200 nM of Me4BodipyFL-Ahx3Leu3VS activity probe was added to the cells and after two hours of incubation cells were harvested for subsequent analysis by FACS or post-lysis fluorescence detection.
Celts were washed once with PBS, trypsin was added and the plate was placed at 37° C. for 5 minutes to allow the cells to detach. When detached the cells were resuspended in PBS supplemented with 2% FBS. Cells were fixed with formaldehyde (final concentration 1% in PBS). All samples were measured using a FACSCalibur flow cytometer (BD Biosciences). […] The complete workflow used for the compound screens is described above in more detail.
The compound libraries mentioned above are screened using a FACS-based activity assay. The proteasome activity probe Me4BodipyFL-Ahx3Leu3VS activity probe is used to fluorescently label the proteasome. This probe binds irreversibly to the catalytic domains of the 20S CP. When proteasome activity is increased, increased probe binding results in an increase in fluorescent signal compared to untreated cells.

Assay [3] has as its system proteasome. As to conditions: literature overview; cited from earlier work. This is another data set of the same source.

We go through one compound from US20140163075A1, “MODULATION OF THE UBIQUITIN-PROTEASOME SYSTEM (UPS)” (NETHERLAND CANCER INSTITUTE, priority 2011, published 2014).

As to `Cc1cc(C(=O)CN2CCCC2)c(C)n1-c1ccc(F)cc1` [USP14 inhibitor, IU1], the “Results: purified proteasome/lysate” value in the assay with proteasome [1] is listed as “Increases all 3 proteasome”. Moreover, the “FL-1 log 2 score compared to the compounds identified in the screen” value in assay [2] is “scores relatively low”. In addition, the “Results: live cells” value in the assay with proteasome [3] was “Increases all 3”.
